According to US20240122909A1, “TREATMENTS OF HEREDITARY ANGIOEDEMA” (KALVISTA PHARMACEUTICALS LIMITED, priority 2021, published 2024):

Key:
Factor XII (FXII) = test: Phase 1 study, ex vivo DXS-stimulated cleavage of Factor XII (Wes); assay type: in vivo, human; conditions: 600 mg capsules, up to 12 hrs post-dose
From the text: DXS-stimulated cleavage of plasma prekallikrein and Factor XII (FXII) were quantified by capillary-based immunoassay on the Wes System (ProteinSimple) analogously.

[1] = Phase 1 single ascending dose study, safety and tolerability; assay type: in vivo, human; conditions: phase I trial, healthy males
From the text: This study was a randomized, double-blind, placebo-controlled single ascending dose (SAD) and crossover studies for food effect and capsule/tablet formulations.

PKa = PKa (Homo sapiens, UniProt P03952); test: Protection of HK from PKa-mediated cleavage in DXS-stimulated HAE and control plasma; assay type: biochemical; conditions: HAE and healthy control plasma stimulated with dextran sulfate, WES
Sequence of PKa (P03952 391-638 limits assumed): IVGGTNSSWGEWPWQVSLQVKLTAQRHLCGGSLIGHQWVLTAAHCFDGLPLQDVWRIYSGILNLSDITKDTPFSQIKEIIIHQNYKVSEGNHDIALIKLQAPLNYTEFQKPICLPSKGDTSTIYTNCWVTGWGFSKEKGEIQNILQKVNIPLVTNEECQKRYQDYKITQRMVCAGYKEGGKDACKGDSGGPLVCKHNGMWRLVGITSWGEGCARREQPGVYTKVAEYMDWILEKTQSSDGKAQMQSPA
Sequence of PKa (P03952 20-390 partner limits assumed): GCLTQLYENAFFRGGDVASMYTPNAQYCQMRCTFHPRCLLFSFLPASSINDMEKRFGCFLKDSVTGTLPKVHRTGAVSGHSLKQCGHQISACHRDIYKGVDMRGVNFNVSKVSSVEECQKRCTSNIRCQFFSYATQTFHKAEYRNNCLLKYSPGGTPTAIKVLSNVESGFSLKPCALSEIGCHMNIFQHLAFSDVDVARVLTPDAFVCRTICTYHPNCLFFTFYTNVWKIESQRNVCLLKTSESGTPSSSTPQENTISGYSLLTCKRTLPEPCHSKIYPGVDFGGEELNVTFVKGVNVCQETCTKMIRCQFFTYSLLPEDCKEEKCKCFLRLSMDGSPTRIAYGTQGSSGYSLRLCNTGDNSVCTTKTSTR
Method: High molecular weight kininogen (HK) cleavage in undiluted citrated human plasma was induced by contact system activation with dextran sulfate (DXS, Sigma #31395-10G; 6.25 μg/ml) on wet ice. […] HAE plasma was obtained from HAE subjects (n=6) and C1-inhibitor deficiency was confirmed by western blotting. Protection of HK from PKa mediated cleavage in DXS-stimulated whole undiluted plasma was then determined by two methods; traditional western blotting and a semi-automated capillary-based immunoassay.
Western blotting: SDS-PAGE gel electrophoresis was done using 7.5% Criterion TGX Precast gels (Bio-rad). Transfer was made onto Immobilon-FL PVDF membrane. Image analysis was performed using the LICOR imaging system. Mouse monoclonal anti-human HK antibody (MAB15692, R&D systems) was used for traditional immunoblotting.
Capillary-Based Immunoassay on the WES System (ProteinSimple):
Preparation of samples: Combine one part 5× fluorescent master mix with four parts of the 1:200 plasma sample. Vortex to mix. Heat the samples+fluorescent master mix and the biotinylated ladder at 95° C. for 5 minutes, vortex, and load onto the WES plate. […] The peak area is defined as the area calculated for the spectral peak profile for HK. To measure the plasma kallikrein inhibition by the compound, the percent full-length HK detected was calculated.

[2] = Phase 2 study Part 2, efficacy in on-demand treatment of HAE attacks; assay type: in vivo, human
Method: In Part 2, the subjects were randomized 1:1 to 2 treatment sequences. This part of the study was conducted away from the clinic or hospital. In Sequence 1 (study arm 1) subjects received a single dose of 600 mg of the compound to treat the first eligible HAE attack. Following resolution of this attack, subjects received a single dose of placebo to treat the second eligible HAE attack.
In Sequence 2 (study arm 2) subjects received a single dose of placebo to treat the first eligible HAE attack. Following resolution of this attack, subjects received a single dose of 600 mg of the compound to treat the second eligible HAE attack.
Laryngeal or facial attacks were not eligible for treatment. HAE attacks must have been treated within the first hour of onset and before reaching severe on the global attack severity scale. Subjects must also have been able to identify the start of a HAE attack. Upon onset of the eligible HAE attack, subjects notified the dedicated study physician or qualified designee with a description of the HAE attack. The dedicated study physician or qualified designee confirmed eligibility of the HAE attack and agreed to study drug being administered. HAE attacks required documentation, on the Subject Diary, of attack location, attack symptoms, time of onset, attack severity, and time of last substantial meal prior to dosing. Subjects took study drug, as instructed, and completed timed assessments of their HAE attack symptoms for a 48 h period as documented below in Table 3. The dedicated study physician or qualified designee contacted the subject within 24 h of the eligible HAE attack to confirm the subject's safety and wellbeing. Subjects were instructed to contact the dedicated study physician or qualified designee in case of any safety concerns. In the case of hypersensitivity, subjects contacted the dedicated study physician or qualified designee or contact the nearest emergency service. The dedicated study physician or qualified designee was available 24 h/day and 7 days/week to receive subject calls.
Time to use of conventional attack treatment was assessed. The subject diary captured the efficacy endpoints including time to use of conventional attack treatment and HAE attack severity.
Overall HAE attack severity was assessed on a 5-point Likert scale (5LS) scored as none, mild, moderate, severe and very severe.
Change in HAE attack severity was assessed using a 7-point transition question (7TQ), scored as Much better/Better/A little better/No change/A little worse/Worse/Much worse.
The type of HAE attack symptoms (abdominal pain, skin pain and skin swelling) was each assessed on a 100 mm visual analogue scale (VAS) anchored at 0 (none) and 100 (very severe).
The primary endpoint, time to use of conventional attack treatment, was analyzed using a generalization of Gehan's test proposed by Feingold and Gillespie (1996) (Crossover trials with censored data. Statistics in Medicine 1996; 15(10): 953-967) to reflect the repeat measures on each subject. Subjects were treated as censored if no worsening occurs within 12 h of study drug.
The proportion of HAE attacks that worsen by one level or more on the 5LS or that require conventional attack treatment within 12 h of study drug was analyzed using Prescott's test (1981) (The comparison of success rates in cross-over trials in the presence of an order effect. Applied Statistics 1981; 30: 9-15) to compare the treatment arms.
A similar approach to that used for the primary endpoint was followed for the analysis of the time between study drug and HAE attack worsening by one level or more on the 5LS or use of conventional attack treatment, whichever comes first within 12 h. […]

Structure (SMILES): COCc1nn(Cc2ccc(Cn3ccccc3=O)cc2)cc1C(=O)NCc1nccc(OC)c1F [compound of Formula A, N-[(3-fluoro-4-methoxypyridin-2-yl)methyl]-3-(methoxymethyl)-1-({4-[(2-oxopyridin-1-yl)methyl]phenyl}methyl)pyrazole-4-carboxamide]
- effect on generation of FXIIa (Factor XII (FXII)): reduces the generation of FXIIa
- tolerability [1]: no tolerability signals
- protection against HK cleavage (PKa): dose dependent protection against HK cleavage
- PGI-C: Median time to HAE attack being (1) rated a little worse or higher for two consecutive time points, or (2) use of conventional attack treatment, whichever comes first ([2]; 600 mg, N = 53, at 12 hours): >12 h
- PGI-C: Median time to HAE attack being rated a little worse or higher for two consecutive time points ([2]; 600 mg, N = 53, at 12 hours): >12 h
- PGI-C: Proportion of HAE attacks that were stable or improved ([2]; 600 mg, N = 53, at 12 hours): 48 (90.6) n (%)
- PGI-S: Median time to HAE attack resolution (rating of none) ([2]; 600 mg, N = 53, at 12 hours): >12 h
- PGI-S: Median time to improvement by one level or more from baseline ([2]; 600 mg, N = 53, at 12 hours): 9.0 h
- PGI-S: Proportion of HAE attacks that improved by 1 level or more from baseline ([2]; 600 mg, N = 53, at 12 hours): 30 (56.6) n (%)
- PGI-S: Proportion of patients with HAE attack resolution (rating of none) ([2]; 600 mg, N = 53, at 12 hours): 20 (37.7) n (%)
- VAS: Proportion of HAE attacks with symptom relief (50% reduction from baseline in composite VAS for three consecutive time points) ([2]; 600 mg, N = 53, at 12 hours): 33 (62.3) n (%)
- PGI-C: Median time to HAE attack being (1) rated a little worse or higher for two consecutive time points, or (2) use of conventional attack treatment, whichever comes first ([2]; 600 mg, N = 53, at 24 hours): >24 h
- PGI-C: Median time to HAE attack being rated a little worse or higher for two consecutive time points ([2]; 600 mg, N = 53, at 24 hours): >24 h
- PGI-C: Proportion of HAE attacks that were stable or improved ([2]; 600 mg, N = 53, at 24 hours): 45 (84.9) n (%)
- PGI-S: Median time to HAE attack resolution (rating of none) ([2]; 600 mg, N = 53, at 24 hours): 18.0 h
- PGI-S: Median time to improvement by one level or more from baseline ([2]; 600 mg, N = 53, at 24 hours): 9.0 h
- PGI-S: Proportion of HAE attacks that improved by 1 level or more from baseline ([2]; 600 mg, N = 53, at 24 hours): 35 (66.0) n (%)
- PGI-S: Proportion of patients with HAE attack resolution (rating of none) ([2]; 600 mg, N = 53, at 24 hours): 28 (52.8) n (%)
- VAS: Proportion of HAE attacks with symptom relief (50% reduction from baseline in composite VAS for three consecutive time points) ([2]; 600 mg, N = 53, at 24 hours): 39 (73.6) n (%)
- severity of the HAE attack, composite VAS score ([2]; 600 mg, over 12 hours and 24 hours): reduced the severity of the HAE attack
- attacks improved to “none” on PGI-S (5LS) ([2]; 600 mg, within 12 hours): 37.7%
- number of attacks stabilized or improved by PGI-S (5LS) or use of rescue ([2]; 600 mg, within 12 hours): significantly increased the number of attacks stabilized or improved
- attacks improved to “none” on PGI-S (5LS) ([2]; 600 mg, within 24 hours): 52.8%
- Median time to symptom relief ([2]; abdominal attacks): 1.5 h
- attacks that achieved attack resolution within 24 hours ([2]; abdominal attacks): 61.1%
- attacks that achieved symptom relief (PGI-C at least “A little better” within 12 hours) ([2]; abdominal attacks): 77.8%
- Median time to symptom relief ([2]; peripheral attacks): 2.5 h
- attacks that achieved attack resolution within 24 hours ([2]; peripheral attacks): 50.0%
- attacks that achieved symptom relief (PGI-C at least “A little better” within 12 hours) ([2]; peripheral attacks): 77.5%
